Measurements published in patent US8524701B2, “Use of a specific cyclic amine derivative or the pharmaceutically acceptable salts thereof for the treatment or prevention of heart failure” (Boehringer Ingelheim Pharma GmbH & Co. KG, priority 2002, dated 2013).
Like-named read-outs stand apart in the source and are kept apart here.

Columns and labels:
heart rate [1] = assay type: in vivo, cat; details: maximum effect, FIG. 1
Text: This selection of the dose is based on the result shown in FIG. 1, wherein the reduction of heart rate is plotted against the applied dose of the drug (open circles: zatebradine; filled circles: cilobradine). […] Therefore, by choosing these doses, it can already be assumed that the pharmacological effect on heart rate of cilobradine is better than the pharmacological effect of zatebradine.

cat eyes [2] = experiment: Electroretinogram (ERG) response to sinusoidally modulated luminances recorded from cat eyes; assay type: in vivo
Procedure: The content of these references, and more particularly the experimental parts described therein, are herein incorporated by reference.
These studies were based on a measurement of the electroretinogram (ERG) responses recorded from cat eyes, in normal conditions and after administration of zatebradine.
In the following experiment, the same experiment was performed using cilobradine, and the results compared to the results obtained with zatebradine.

heart rate [3] = assay type: in vivo; details: rat
Procedure: A further similar experiment was performed in order to compare the visual side-effect of cilobradine and zatebradine in conditions where the drugs are pharmacologically effective in reducing heart rate. The aim of this experiment was to compare the visual side-effect of both drugs in another experimental animal model, namely on the retinal system of the rat. Furthermore, the aim of this experiment was also to compare the visual side-effect of both drugs in acute and in chronic (over two weeks) drug treatment conditions.
The ERG measurements were made 30 minutes after injection of the drug. The measured heart rate frequency was:
The ERG measurement was made 30 minutes after injection of the drug. The measured heart rate frequency was:
(§1) The ERG measurement was made after the 2 weeks treatment.

[4] = system: retinal system of the rat; experiment: Electroretinogram (ERG) responses from anesthetized pigmented rats as a function of stimulus frequency; assay type: in vivo; details: for effect on the ERG (visual side-effect): 30 minutes after injection
Text: The aim of this experiment was to compare the visual side-effect of both drugs in another experimental animal model, namely on the retinal system of the rat. Furthermore, the aim of this experiment was also to compare the visual side-effect of both drugs in acute and in chronic (over two weeks) drug treatment conditions.
The principle of this experiment is again the same as the principle of the experiment performed by Gargini et al. and published in Vision research, vol.
The results of the experiment are visualized by plotting the measurement of the first amplitude of the Fourier transform of the ERG as a function of the applied stimulus frequency (oscillating light stimulus of high luminance and contrast).
The ERG measurements were made 30 minutes after injection of the drug.
The ERG measurement was made 30 minutes after injection of the drug.
as §1

[5] = system: hyperpolarisation activated, cAMP-modulated cation current channels (HCN) in cardiac conductive tissue; details: cited from earlier work
cat eyes [6] = details: cited from earlier work
[7] = system: patients with heart failure; details: Shinke et al. 1997; cited from earlier work

Row | SMILES | reduction of the heart rate (heart rate [1]; dose of 0.75 mg/kg body weight) | ERG response (visual side-effect) (cat eyes [2]; after injection of 0.75 mg/kg body weight, FIG. 3) | measured heart rate frequency (heart rate [3]; acute treatment 0.3 mg/kg, 30 minutes after injection, control 400, FIG. 4) [beats per min.] | measured heart rate frequency (heart rate [3]; acute treatment 1 mg/kg, 30 minutes after injection, control 400, FIG. 4) [beats per min.] | measured heart rate frequency (heart rate [3]; acute treatment 3 mg/kg, 30 minutes after injection, control 400, FIG. 4) [beats per min.] | measured heart rate frequency (heart rate [3]; chronic treatment 2 weeks, FIG. 7, table row prints 1 mg/kg, text says double dose of 3 mg/kg per day, control 350) [beats per min.] | measured heart rate frequency (heart rate [3]; chronic treatment, single dose 1 mg/kg per day during 2 weeks, control 400, FIG. 6) [beats per min.] | visual side-effects ([4]; acute as well as chronic (2 weeks) treatment, FIGS. 4 and 6) | effect on the ERG (visual side-effect) ([4]; acute treatment 0.3, 1 and 3 mg/kg, FIG. 4) | block of HCN channels responsible for the current If [5] | reduction of the heart rate (heart rate [1]; dose of 2.5 mg/kg body weight) | ERG response (visual side-effect) (cat eyes [2]; 15 minutes after 2.5 mg/kg body weight i.v. injection, FIG. 2) | ERG response (visual side-effect) (cat eyes [2]; 5 hours after injection of 2.5 mg/kg body weight, FIG. 2) | measured heart rate frequency (heart rate [3]; acute treatment, single dose 3 mg/kg, 30 minutes after injection, control 428, FIG. 5) [beats per min.] | effect on the ERG (visual side-effect) ([4]; acute treatment, single dose 3 mg/kg, FIG. 5) | ERG response amplitude (cat eyes [6]; after administration of zatebradine, Archives Italiennes de Biologie 1999, Vision Research 1999) | cut-off introduced in the band-pass of the ERG response (cat eyes [6]; after intravenous injection or oral administration, decreased response amplitude in the range 2 to 15 Hertz) | cardiac efficiency [7]
1 | COc1ccc(CCN2CCC[C@H](CN3CCc4cc(OC)c(OC)cc4CC3=O)C2)cc1OC [cilobradine, (+)-3-[(N-(2-(3,4-dimethoxy-phenyl)-ethyl)-piperidin-3-(S)-yl)-methyl]-7,8-dimethoxy-1,3,4,5-tetrahydro-2H-3-benzazepin-2-one] | about 75% | no visual effect can be detected | 364 | 316 | 270 | 285 | 260 | without visual side-effects | no effect on the ERG can be detected | selectively block | – | – | – | – | – | – | – | –
2 | COc1ccc(CCN(C)CCCN2CCc3cc(OC)c(OC)cc3CC2=O)cc1OC [zatebradine] | – | – | – | – | – | – | – | – | – | selectively block | about 44% | reduces the amplitude of the response to stimuli of frequency above 1 Hz and shift the corresponding phase lags | visual response is back to normal | 333 | a reduction of the amplitude of the response to stimuli of frequency above 1 Hz and a shift of the corresponding phase lags is observed | reduces the amplitude of the response to stimuli of frequency above 1 Hz | about 2 Hertz | improved cardiac efficiency
